Data as given in publication PMC5466822 (Organic & biomolecular chemistry, 2016).

What was measured:
p97 [1] = target: T1, p97 (Homo sapiens, UniProt P55072); assay: malachite green ATPase assay, dose-response; assay type: biochemical
p97 [2] = target: T1, p97; assay: malachite green ATPase assay, 9-point dose-response; assay type: biochemical

T1 sequence (P55072 2-806): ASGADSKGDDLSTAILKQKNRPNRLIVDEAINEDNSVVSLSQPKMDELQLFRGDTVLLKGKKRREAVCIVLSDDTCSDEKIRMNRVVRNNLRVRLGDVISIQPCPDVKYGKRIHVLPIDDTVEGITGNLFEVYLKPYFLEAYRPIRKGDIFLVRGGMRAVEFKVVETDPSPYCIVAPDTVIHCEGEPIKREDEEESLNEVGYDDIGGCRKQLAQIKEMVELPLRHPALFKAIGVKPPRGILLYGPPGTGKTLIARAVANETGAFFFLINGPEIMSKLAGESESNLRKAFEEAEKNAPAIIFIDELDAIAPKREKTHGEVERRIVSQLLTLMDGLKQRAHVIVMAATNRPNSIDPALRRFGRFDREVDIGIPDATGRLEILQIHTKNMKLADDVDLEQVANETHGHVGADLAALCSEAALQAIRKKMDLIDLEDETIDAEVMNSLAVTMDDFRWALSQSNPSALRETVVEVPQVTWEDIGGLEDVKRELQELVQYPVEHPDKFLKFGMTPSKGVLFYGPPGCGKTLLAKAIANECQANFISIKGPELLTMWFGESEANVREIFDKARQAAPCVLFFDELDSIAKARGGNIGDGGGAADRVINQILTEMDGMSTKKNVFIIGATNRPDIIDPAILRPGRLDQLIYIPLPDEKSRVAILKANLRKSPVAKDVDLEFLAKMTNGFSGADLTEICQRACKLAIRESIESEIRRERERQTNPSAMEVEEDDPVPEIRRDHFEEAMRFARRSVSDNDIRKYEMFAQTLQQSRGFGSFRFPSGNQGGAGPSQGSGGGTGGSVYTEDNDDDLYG

IC50 (p97 [1]) [µM]	SMILES	IC50 (p97 [2]) [µM]
13.9	C[C@H]1CCC/C=C/C(=O)c2c(O)c(Cl)c(O)c(Cl)c2CC(=O)O1 [compound 4, 4,6-dichloro-10(11)-dehydrocurvularin]	
24.3	C[C@H]1CCC/C=C/C(=O)c2c(cc(O)c(Cl)c2O)CC(=O)O1 [compound 3, 6-chloro-10(11)-dehydrocurvularin]	
	C[C@H]1CCC/C=C/C(=O)c2c(O)cc(O)cc2CC(=O)O1 [compound 2, 10(11)-dehydrocurvularin]	15.3 ± 9.9
